Assay results from US9539367B2, “Gallium inhibits biofilm formation” (priority 2003, dated 2017).
pIC50: −log10 of the molar value. Where two headings read alike, the source gives them in different places.

Legend:
[1] = patients with cancer-related hypercalcemia; cited from earlier work
[2] = tested on: intraphagosomal M. tuberculosis; experiment: 59Fe acquisition by M. tuberculosis within macrophage phagosomes; assay type: cell-based; conditions: 10 μM Ga(NO3)3; 59Fe transferrin
Procedure: FIG. 6. Ga-transferrin inhibits Fe acquisition by M. tuberculosis within macrophage phagosomes in a concentration-dependent manner. ^59Fe transferrin (10 μM) was added to M. tuberculosis-containing MDMs in the absence (control) or the presence of the indicated concentrations of Ga-transferrin for 24 h MDMs were lysed, and the lysates were filtered through a 0.22-μm (pore-size) filter. M. tuberculosis-associated radioactivity (expressed in cpm) on the filter was determined. Shown are the cpm values as a function of the Ga concentration added from a representative experiment.
Fe-TF is the major form of extracellular Fe, and transport of exogenously added TF to the M. tuberculosis-containing phagosome of human macrophages (Clemens et al., 1996) has been observed. It was therefore hypothesized that gallium competes with Fe uptake by bacteria dividing within the phagosome. […] This was not due to differences in total MDM ^59Fe.
In two recent preliminary experiments, MDM monolayers were preloaded with either ^59Fe or ^67Ga or both (pulse/chase, 24 h each). Erdman M. tuberculosis was then added. After 48 h, bacteria isolated from the phagosome were assessed for associated iron or gallium. Each metal could be found specifically associated with the bacteria.

P. aeruginosa biofilm = experiment: Biofilm formation of GFP-labeled P. aeruginosa in continuous culture flow cells; assay type: cell-based
P. aeruginosa [3] = experiment: P. aeruginosa growth in 1:100 strength TSB medium (A600); conditions: batch culture
Procedure: Effect of gallium on the growth of P. aeruginosa. Bacteria were inoculated in 1:100 strength TSB medium with the indicated concentrations of gallium and grown at 37° C. with shaking. Growth was monitored as the change in A600 over 15 h.

[4] = tested on: M. tuberculosis within human monocyte-derived macrophages (MDM); assay type: cell-based
IdeR = IdeR (Mycobacterium tuberculosis, UniProt P9WMH1); experiment: IdeR DNA binding, gel mobility shift assay with HisE promoter region; design: species or system M. tuberculosis; conditions: for IdeR binding to HisE promoter DNA fragment: 200 μM
Chain of IdeR (P9WMH1 whole entry, the tested form may be a part): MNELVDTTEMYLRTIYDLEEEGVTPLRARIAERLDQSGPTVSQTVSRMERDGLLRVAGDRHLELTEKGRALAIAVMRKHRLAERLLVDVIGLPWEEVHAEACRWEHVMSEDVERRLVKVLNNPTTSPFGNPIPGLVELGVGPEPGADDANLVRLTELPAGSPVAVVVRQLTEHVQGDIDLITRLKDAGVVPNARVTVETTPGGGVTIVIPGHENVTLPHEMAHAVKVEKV
Text: The iron regulatory element, IdeR, regulates the production of catalase, SOD, and siderophores in mycobacteria (Dussurget et al., 1996) in a manner analogous to P. aeruginosa Fur. In order for DNA binding to occur, IdeR must be complexed with a divalent metal such as Fe^2+ or Ni^2+. The effect of Ga(NO3)3 on the binding (gel mobility shift assay) of IdeR was examined using the HisE promoter region from M. tuberculosis that contains a high affinity IdeR binding site (Schmitt et al., 1995). […] A similar lack of binding of Ga^3+ to P. aeruginosa Fur is expected based on these findings.

M. tuberculosis RR [5] = biological target: T1, M. tuberculosis RR (Mycobacterium tuberculosis, UniProt P9WH71); experiment: Radiolabeled CDP reduction assay for ribonucleotide reductase activity; assay type: biochemical; conditions: n=2; read-out: concentration that inhibited RR activity by 50%
T1 sequence (P9WH71 whole entry): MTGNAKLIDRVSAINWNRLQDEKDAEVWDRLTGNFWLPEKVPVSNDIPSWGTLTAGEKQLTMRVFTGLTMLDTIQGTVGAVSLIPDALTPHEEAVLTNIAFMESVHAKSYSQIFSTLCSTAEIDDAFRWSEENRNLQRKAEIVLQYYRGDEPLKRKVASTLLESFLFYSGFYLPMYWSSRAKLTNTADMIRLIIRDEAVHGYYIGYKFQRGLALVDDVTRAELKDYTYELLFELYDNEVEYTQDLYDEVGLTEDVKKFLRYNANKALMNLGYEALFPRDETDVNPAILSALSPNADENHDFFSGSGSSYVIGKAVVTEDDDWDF

Erdman M. tuberculosis [6] = experiment: 59Fe acquisition by M. tuberculosis in 7H9 medium; assay type: cell-based; conditions: 500 nM 59Fe-citrate, 6 h
Procedure: FIGS. 4A-4B. […] Erdman M. tuberculosis (2×10^7 ml) was incubated for 6 h in 7H9 medium (without added Fe and OADC) with 500 nM ^59Fe-citrate (FIG. 4A) or ^67Ga-citrate (FIG. 4B) in the absence or presence of the indicated concentrations of cold competing metal. The bacteria were then washed repeatedly, and bacterium-associated ^67Ga or ^59Fe levels were determined. Results are shown as the amount of metal acquired as a function of increasing concentrations of the cold competing metal. Experimental groups were performed in triplicate, and the data shown represent three independent experiments (mean±SEM).

[7] = tested on: P. aeruginosa strain PA01; experiment: P. aeruginosa growth in iron-supplemented succinate media (A600); assay type: cell-based; conditions: 100 nM gallium
Procedure: FIG. 7. P. aeruginosa was inoculated to an OD (A600) of about 0.010 into succinate media alone or with FeCl3 supplementation +/− the Ga chelates.
P. aeruginosa growth is dependent on the addition of exogenous Fe (FIG. 7). […] When gallium, either in the form of Ga(NO3)3 or Ga-TF, was added to iron-supplemented succinate media at concentrations ≧1 μM, a gallium concentration-dependent inhibition of P. aeruginosa growth was observed (FIG. 7). […] Similar results were observed under different conditions (see below).

established biofilms = experiment: Killing of established three-day-old biofilms, viability by propidium iodide; assay type: cell-based, P. aeruginosa; conditions: 10 μM, 100 μM, 1000 μM; 12, 24, 48, 72 hours
Procedure: FIGS. 10A-10D. Gallium kills established biofilms. Three-day-old biofilms were exposed to gallium in concentrations of 10 μM, 100 μM, and 1000 μM. Biofilm viability was assessed with propidium iodide, and observations were recorded at 12 hours (FIG. 10A), 24 hours (FIG. 10B), 48 hours (FIG. 10C), and 72 hours (FIG. 10D).
Three-day-old biofilms were exposed to gallium in concentrations of 10 μM, 100 μM, and 1000 μM. The biofilm viability was assessed with propidium iodide, and observations were recorded at 12 hours (FIG. 10A), 24 hours (FIG. 10B), 48 hours (FIG. 10C), and 72 hours (FIG. 10D).

[8] = human, in vivo; read-out: peak levels achieved clinically; cited from earlier work
M. tuberculosis RR [9] = biological target: T1, M. tuberculosis RR; conditions: Yang et al., 1997; read-out: IC50, RR inhibition; cited from earlier work
P. aeruginosa [10] = conditions: cited from earlier work
Erdman M. tuberculosis [11] = assay type: cell-based; conditions: liquid media

O=[N+]([O-])[O-].O=[N+]([O-])[O-].O=[N+]([O-])[O-].[Ga+3] [Ga(NO3)3, gallium nitrate]
tolerability [1]: well tolerated | 59Fe acquisition by intraphagosomal M. tuberculosis [2]: markedly decreased | effect on P. aeruginosa biofilm formation (P. aeruginosa biofilm; 0.3 μM Ga(NO3)3 (sub-inhibitory), up to 4 days): subsequent steps in biofilm formation were inhibited | concentration above which growth rate of P. aeruginosa significantly decreased (P. aeruginosa [3]): exceeded 1 μM

O=[N+]([O-])[O-].[Na+] [NaNO3, reference compound]
effect on mycobacterial growth within macrophages ([4]; nitrate control): no effect

[Ni+2] [Ni^2+, reference compound]
IdeR binding to HisE promoter DNA fragment (IdeR): binding was observed

CC(C)(O/N=C(\C(=O)N[C@@H]1C(=O)N2C(C(=O)[O-])=C(C[n+]3ccccc3)CS[C@H]12)c1csc(N)n1)C(=O)O [ceftazidime, reference compound]
effect on P. aeruginosa biofilm development (P. aeruginosa biofilm; sub-inhibitory concentration, 0.25 μg/ml): did not inhibit biofilm development

[Ga+3] [gallium]
bactericidal activity for M. tuberculosis ([4]; extracellularly and even more so intracellularly in macrophages): bactericidal | pIC50 (M. tuberculosis RR [5]): 3.35 | competition for M. tuberculosis acquisition of 59Fe (Erdman M. tuberculosis [6]): highly effective in competing | effect on P. aeruginosa growth [7]: did not inhibit growth | interference with Ni2+ or Fe2+ activation of IdeR binding (IdeR): did not interfere | IdeR binding to HisE promoter DNA fragment (IdeR): did not lead to IdeR binding | killing of established biofilms (established biofilms): kills established biofilms in a time and concentration dependent manner | Cmax [8]: 140 to 700 µM

NC(=O)NO [hydroxyurea]
pIC50 (M. tuberculosis RR [9]): 2.30 to 2.52

NC[C@H]1O[C@H](O[C@H]2[C@H](O)[C@@H](O[C@H]3O[C@H](CO)[C@@H](O)[C@H](N)[C@H]3O)[C@H](N)C[C@@H]2N)[C@H](N)C[C@@H]1O [tobramycin]
reduction of biofilm cell counts (P. aeruginosa [10]; levels far in excess of the MIC, biofilm cells): approximately 2 logs | decrease in planktonic cells (P. aeruginosa [10]; same dosage, planktonic cells): > 8 log

Ga-TF: gallium chelated by serum transferrin (TF)
inhibiting mycobacterial growth compared with Ga(NO3)3 ([4]; within human macrophages): as effective as Ga(NO3)3 | inhibiting mycobacterial growth compared with Ga(NO3)3 (Erdman M. tuberculosis [11]): as effective as Ga(NO3)3
